Test results reported in patent EP0906078B1, “TOPICAL USE OF TEMPOL IN THE PREVENTION OF PHOTOAGING” (Bernstein, Eric F., priority 1996, dated 1997).
“And” between values parts separate entries of the source, which are not always exact repeats. Equal entries are not always repeated.

Assays:
human elastin promoter [1] = test: UVA/8-MOP (PUVA)-induced promoter activation (CAT activity) in fibroblast cultures from transgenic mice; format: cell-based
Protocol: Because a response to UVA alone in vitro is not measurable and the in vivo response is relatively small, 8-methoxypsoralen (8-MOP) was added to the system to enhance the promoter response to UVA.
In these experiments, control cells received no UVA or 8-MOP. UVA controls received either 0.5, 0.75 or 1.0 J/cm^2 of UVA without prior incubation with 8-MOP. 8-MOP controls received 1 µg/ml of 8-MOP but no UVA. Tempol controls received 100 mM Tempol and no UVA or 8-MOP. PUVA-treated cells were preincubated with 1.0 µg/ml of 8-MOP in PBS and then exposed to 0.5, 0.75 or 1.0 J/cm^2. Tempol treated cells were pretreated with 100 mM Tempol 12.5 minutes prior to UVA exposure. 8-MOP was also added to these cells at the same time as the Tempol.
The addition of Tempol to the cultures reduced the PUVA-induced increase in CAT activity to 1.5-, 1.2- and 2.0-fold that of controls, respectively, thus almost completely eliminating the PUVA-induced increase in CAT activity.
Fibroblast cultures were established from the skin of transgenic mice by explanting tissue specimens onto plastic tissue culture dishes and allowing cells to migrate to the surrounding area. The primary cultures were maintained in Dulbecco's modified Eagle's medium supplemented with 10% fetal calf serum, 2 mM L-glutamine and antibiotics, at 37°C. The primary cell cultures were passaged by trypsinization, and the subcultures in passages three or four were utilized for UVB treatment. After UV exposure, the cells were incubated in tissue culture medium for 24 hours, and then harvested for determination of CAT activity.
To measure the expression of the human elastin promoter/CAT reporter gene construct in the skin of transgenic mice and in fibroblast cultures established from these animals, CAT activity was determined. For extraction of the CAT from skin, the specimens were homogenized in 0.25 Tris-HCl, pH 7.5, using a tissue homogenizer (Brinkmann Instruments, Inc. Westbury, NY). The homogenates were centrifuged at 10,000 X g for 15 minutes at 4°C and the protein concentration in the supernatant determined by a commercial protein assay kit (Bio-Rad Laboratories, Richmond, CA). Aliquots of the supernatant containing 100 µg of protein were used for assay of CAT activity by incubation with [^14C] chloramphenicol in accordance with well-known procedures. The acetylated and non-acetylated forms of radioactive chloramphenicol were separated by thin-layer chromatography and CAT activity was determined by the radioactivity in the acetylated forms as a percent of the total radioactivity in each sample.
Irradiation with UVA was performed using a closely spaced array of seven Sylvania FR40T12 PUVA lamps filtered through window glass of 2 mm thickness to remove wavelengths below 320 nm. The energy output at 38 cm from the array was measured with a Solar Light Model 3D UVA and UVB detector (Solar Light Company, Philadelphia, PA). The output of the lamps filtered through the window glass was 2.02 mW/cm^2, with no detectable UVB.

human elastin promoter [2] = test: Transgenic mouse model of photoaging: human elastin promoter/CAT reporter activity in skin after UVB; settings: in vivo
human elastin promoter [3] = test: UVB-induced promoter activation (CAT activity) in fibroblast cultures from transgenic mice
Absorption spectrum = format: physicochemical
[4] = in vivo; cited from earlier work

Structure (SMILES) | CAT activity (human elastin promoter [1]; 1 µg/ml 8-MOP and 0.5 J/cm^2 UVA, no Tempol, relative to controls) [fold] | CAT activity (human elastin promoter [1]; 1 µg/ml 8-MOP and 0.75 J/cm^2 UVA, no Tempol, relative to controls) [fold] | CAT activity (human elastin promoter [1]; 1 µg/ml 8-MOP and 1.0 J/cm^2 UVA, no Tempol, relative to controls) [fold] | CAT activity (human elastin promoter [1]; 8-MOP alone (1 µg/ml), no UVA) | CAT activity (human elastin promoter [2]) | CAT activity (human elastin promoter [1]) | protection against the PUVA-induced increases in CAT activity (human elastin promoter [1]) | % Protection from UVB (human elastin promoter [3]) | further reduction of CAT activity by scavenging properties (human elastin promoter [3]) [%] | reduction in CAT activity from cells treated with UVB alone (human elastin promoter [3]) [fold] | absorption in the UVA range (Absorption spectrum) | detection in the blood following application [4]
COc1c2occc2cc2ccc(=O)oc12 [8-MOP, 8-methoxypsoralen, reference compound] | 2.7 | 9.0 | 21.4 | failed to produce significant CAT activity | – | – | – | – | – | – | – | –
CC1(C)CC(O)CC(C)(C)N1[O] [Tempol, 4-hydroxy-2,2,6,6-tetramethyl-piperidinyloxy, free radical] | – | – | – | – | 1.7 fold and 3.3 fold | 1.5 fold and 1.2 fold and 2.0 fold | failed to afford protection | 41 p<0.01% and 74 p<0.001% and 69 p<0.001% and 42 p<0.001% | 38 | ~6 | very little absorption | undetectable
